In the PolyMetriX glass transition set:

| glass transition temperature [°C] | Compound |
| --- | --- |
| 143.00 | *Cc1ccc(COC(=O)c2cccc(C(=O)O*)c2)cc1 (repeat unit) |
| -78.00 | *O[Si](*)(C)CCCCCCCCCCC(=O)OCCC(F)(F)C(F)(F)C(F)(F)C(F)(F)C(F)(F)C(F)(F)C(F)(F)C(F)(F)F (repeat unit) |
| 16.50 | *O[Si](*)(C)CCCCCCCCCCC(=O)Oc1ccc(-c2ccc(OC(=O)CCCCC(=O)OC3CC(C)CCC3C(C)C)cc2)cc1 (repeat unit) |
| 26.70 | *O[Si](*)(C)CCCCCCCCCCC(=O)Oc1ccc(C(=O)Oc2ccc(-c3ccc(OCC(C)CC)cc3)cc2)cc1 (repeat unit) |
| 20.70 | *O[Si](*)(C)CCCCCCCCCCC(=O)Oc1ccc(C(=O)Oc2ccc(OC(=O)CCCCC(=O)OC3CC(C)CCC3C(C)C)cc2)cc1 (repeat unit) |
| 28.50 | *O[Si](*)(C)CCCCCCCCCCC(=O)Oc1ccc(C(=O)Oc2ccc(OC(=O)c3ccc(OCC(C)CC)cc3)cc2)cc1 (repeat unit) |
| 27.00 | *O[Si](*)(C)CCCCCCCCCCC(=O)Oc1ccc2cc(C(=O)OC3CCC4(C)C(=CCC5C4CCC4(C)C(C(C)CCCC(C)C)CCC54)C3)ccc2c1 (repeat unit) |
| 15.00 | *O[Si](*)(C)CCCCCCCCCCCOc1ccc(-c2ccc(C(=O)Oc3ccc(C(=O)OC(C)C(=O)OC(C)C(=O)OC(C)C(=O)OCC(C)CC)cc3)cc2)cc1 (repeat unit) |
| -33.00 | *O[Si](*)(C)CCCCCCCCCCCOc1ccc(/C=C/c2ccc(OCCCC)cc2)cc1 (repeat unit) |
| -45.00 | *O[Si](*)(C)CCCCCCCCCCCn1c2ccccc2c2ccccc21 (repeat unit) |
| 5.50 | *O[Si](*)(C)CCCCCCCCOc1ccc(C(=O)Oc2ccc(C#N)cc2C)cc1 (repeat unit) |
| -50.00 | *O[Si](*)(C)CCCCCCOC(=O)c1cc(OC(=O)c2ccc(OCCOCCOCCOCCOCCOCCOC)cc2)ccc1OC(=O)c1ccc(OCCOCCOCCOCCOCCOCCOC)cc1 (repeat unit) |
| 45.00 | *O[Si](*)(C)CCCCCCOc1ccc(C(=O)Oc2ccc(C#N)cc2C)cc1 (repeat unit) |
| -2.00 | *O[Si](*)(C)CCCCCCOc1ccc(C(=O)Oc2ccc(OC)cc2)cc1 (repeat unit) |
| -5.00 | *O[Si](*)(C)CCCCCCn1c2ccccc2c2ccccc21 (repeat unit) |
| 22.50 | *O[Si](*)(C)CCCCOc1ccc(-c2ccc(C#N)cc2)cc1 (repeat unit) |
| -37.00 | *O[Si](*)(C)CCCOC(=O)c1cc(OC(=O)c2ccc(OCCOCCOCCOCCOC)cc2)ccc1OC(=O)c1ccc(OCCOCCOCCOCCOC)cc1 (repeat unit) |

| glass transition temperature [°C] | Compound |
| --- | --- |
| 9.20 | *O[Si](*)(C)CCCOc1ccc(/N=N/c2ccc(S(=O)(=O)O)cc2)cc1 (repeat unit) |
| 61.10 | *O[Si](*)(C)CCCOc1ccc(C(=O)OC2CCC3(C)C(=CCC4C3CCC3(C)C(C(C)CCCC(C)C)CCC43)C2)cc1 (repeat unit) |
| 112.60 | *O[Si](*)(C)CCCOc1ccc(C(=O)OC2CCC3(C)C(=CCC4C3CCC3(C)C(C(C)CCCC(C)C)CCC43)C2)cc1S(=O)(=O)[O][K] (repeat unit) |
| 56.80 | *O[Si](*)(C)CCCOc1ccc(C(=O)Oc2ccc(-c3ccc(OC(=O)CCCCC(=O)OC4CC(C)CCC4C(C)C)cc3)cc2)cc1 (repeat unit) |
| 74.60 | *O[Si](*)(C)CCCOc1ccc(C(=O)Oc2ccc(-c3ccc(OC(=O)c4ccc(OCC)cc4)cc3)cc2)cc1 (repeat unit) |
| 102.00 | *O[Si](*)(C)CCCOc1ccc(N(c2ccc(C)cc2)c2ccc(-c3ccc(N(c4ccccc4)c4ccc(C)cc4)cc3)cc2)cc1 (repeat unit) |
| 55.5 | *O[Si](*)(C)CCCn1c2ccccc2c2ccccc21 (repeat unit) |
| 96.00 | *O[Si](*)(C)CCc1cc(C(=O)Oc2ccc(OCCCC)cc2)ccc1-c1ccc(C(=O)Oc2ccc(OCCCC)cc2)cc1 (repeat unit) |
| 92.00 | *O[Si](*)(C)CCc1cc(C(=O)Oc2ccc(OCCCC)cc2)ccc1C(=O)Oc1ccc(OCCCC)cc1 (repeat unit) |
| 44.00 | *O[Si](*)(C)OCCCCCCCCCCCOc1ccc(C2COC(c3ccc(OC)cc3)OC2)cc1 (repeat unit) |
| -5.50 | *O[Si](C)(C)O[Si](*)(C)CCCCOc1ccc(-c2ccc(C#N)cc2)cc1 (repeat unit) |
| -65.00 | *O[Si](C)(C)O[Si](C)(C)O[Si](C)(C)O[Si](C)(C)O[Si](C)(C)c1ccc(Oc2ccc([Si](*)(C)C)cc2)cc1 (repeat unit) |
| -37.00 | *O[Si](C)(C)O[Si](C)(C)O[Si](C)(C)c1ccc(Oc2ccc([Si](*)(C)C)cc2)cc1 (repeat unit) |
| 65.00 | *O[Si](C)(C)c1ccc2ccc3c([Si](*)(C)C)ccc4ccc1c2c43 (repeat unit) |
| 179.00 | *Oc1ccc(/C=N/N=C/c2ccc(Oc3ccc(C(=O)c4ccc(*)cc4)cc3)cc2)cc1 (repeat unit) |
| 175.00 | *Oc1ccc(C(c2ccc(Oc3ccc(C(=O)c4ccc(*)cc4)cc3)cc2)(C(F)(F)F)C(F)(F)F)cc1 (repeat unit) |

Further lines, the compound ahead of its results:

| Compound | glass transition temperature [°C] |
| --- | --- |
| *CCOc1ccc(S(=O)(=O)c2ccc(OCCOP(=O)(O*)Oc3ccc(C)cc3)cc2)cc1 (repeat unit) | 46.00 |
| *CCOc1ccc(S(=O)(=O)c2ccc(OCCOP(=O)(O*)Oc3ccccc3)cc2)cc1 (repeat unit) | 49.00 |
| *OP(=O)(Oc1ccc(OC)cc1)Oc1c(Br)cc(C(c2cc(Br)c(*)c(Br)c2)(C(F)(F)F)C(F)(F)F)cc1Br (repeat unit) | 151.00 |
| *O[SiH](*)C (repeat unit) | -3.39 |
| *O[Si](*)(C)C1CC2CC1C1C3CC(CC3C(=O)OC(C)(C)C)C21 (repeat unit) | 90.00 |
| *O[Si](*)(C)C1CC2CC1CC2OC(=O)OC(C)(C)C (repeat unit) | 60.00 |
| *O[Si](*)(C)C=C (repeat unit) | -129.00 |
| *O[Si](*)(C)CCCC(=O)OCC (repeat unit) | -82.00 |
| *O[Si](*)(C)CCCC(=O)OCCCC (repeat unit) | -91.00 |
| *O[Si](*)(C)CCCC(=O)OCCO (repeat unit) | -58.00 |
| *O[Si](*)(C)CCCCCCCC (repeat unit) | -92.00 |
| *O[Si](*)(C)c1ccc(C)cc1 (repeat unit) | -17.00 |
| *O[Si](*)(CCC)CCC (repeat unit) | -77.50 |
| *O[Si](*)(CCC)c1ccccc1 (repeat unit) | 40.60 |
| *O[Si](*)(CCCOCCOCCOCCOCCOC)CCCOCCOCCOCCOCCOC (repeat unit) | -69.80 |
| *O[Si](*)(CCCOCCOCCOCCOCCOCCOCCOC)CCCOCCOCCOCCOCCOCCOCCOC (repeat unit) | -68.90 |
| *O[Si](C)(C)O[Si](C)(C)O[SiH](*)O[Si](C)(C)C=C (repeat unit) | -68.00 |
| *O[Si](C)(C)O[Si](C)(C)O[Si](C)(C)O[Si](C)(C)c1ccc([Si](*)(C)C)cc1 (repeat unit) | -72.00 |
| *O[Si](C)(C)O[Si](C)(C)O[Si](C)(C)O[Si](C)(c1ccccc1)c1cccc([Si](*)(C)c2ccccc2)c1 (repeat unit) | -42.00 |

| Compound | glass transition temperature [°C] |
| --- | --- |
| *O[Si](C)(C)O[Si](C)(C)O[Si](C)(C)c1ccc([Si](*)(C)C)cc1 (repeat unit) | -62.00 |
| *O[Si](C)(C)c1cc(OCCO)c([Si](*)(C)C)cc1OCCO (repeat unit) | 73.00 |
| *O[Si](C)(C)c1ccc([Si](C)(C)O[SiH](*)CCC(F)(F)F)cc1 (repeat unit) | -37.00 |
| *O[Si](C)(C)c1ccc2cc([Si](*)(C)C)ccc2c1 (repeat unit) | 29.00 |
| *O[Si](C)(C)c1ccc2cc3cc([Si](*)(C)C)ccc3cc2c1 (repeat unit) | 118.00 |
| *O[Si](C)(C)c1cccc(C(F)(F)C(F)(F)C(F)(F)c2cccc([Si](*)(C)C)c2)c1 (repeat unit) | -8.00 |
| *O[Si](C)(C)c1cccc([Si](*)(C)C)c1 (repeat unit) | -48.00 |
| *O[Si](O[Si](C)(C)c1ccc([Si](*)(C)C)cc1)(c1ccccc1)c1ccccc1 (repeat unit) | 0.00 |
| *Oc1c(-c2ccccc2)cc(*)cc1-c1ccc(C(C)(C)C)cc1 (repeat unit) | 240.00 |
| *Oc1c(-c2ccccc2)cc(*)cc1-c1ccc(C)cc1 (repeat unit) | 218.00 |
| *Oc1c(-c2ccccc2)cc(*)cc1-c1cccc(C)c1 (repeat unit) | 219.00 |
| *Oc1c(Br)cc(*)cc1Br (repeat unit) | 196.00 |
| *Oc1c(Br)cc(C2(c3cc(Br)c(OC(*)=O)c(Br)c3)CC3CCC2C3)cc1Br (repeat unit) | 283.00 |
| *Oc1c(C(C)C)cc(*)cc1C(C)C (repeat unit) | 152.40 |
| *Oc1c(C)cc(*)cc1C (repeat unit) | 212.00 |
| *Oc1ccc(C(=O)c2ccc(Oc3ccc(C(=O)c4c(C(=O)c5ccc(*)cc5)c(-c5ccccc5)c(-c5ccc6ccccc6c5)c(-c5ccc6ccccc6c5)c4-c4ccccc4)cc3)cc2)cc1 (repeat unit) | 290.00 |
| *Oc1ccc(C(=O)c2ccc(Oc3ccc(C(c4ccc(*)cc4)(C(F)(F)F)C(F)(F)F)cc3)cc2)c2ccccc12 (repeat unit) | 190.00 |
| *Oc1ccc(S(=O)(=O)c2ccc(Oc3c(C)cc(C(c4cc(C)c(*)c(C)c4)(C(F)(F)F)C(F)(F)F)cc3C)cc2C(OC)(C(F)(F)F)C(F)(F)F)c(C(OC)(C(F)(F)F)C(F)(F)F)c1 (repeat unit) | 163.00 |
